Test system: subject with uncontrolled type II diabetes / non insulin-dependent diabetes
Test: Anecdotal studies: hypoglycemic effect, blood glucose level of diabetic subjects
Format: in vivo, human
Settings: before capsules

Structure (SMILES): CN(C)C(=N)N=C(N)N [metformin]
- daily blood glucose level (base level) on metformin alone (study 2: person, 61 kg, non insulin-dependent diabetes, metformin 500 mg BID): 234 mg/dL
- daily blood glucose level (base level) on metformin alone (study 3: person, 67 kg, non insulin-dependent uncontrolled diabetic, metformin 500 mg, three tablets per day): 261 mg/dL

Source: patent publication US9034400B2, “Process for preparation of a herbal extract” (Piramal Enterprises Limited, priority 2011, dated 2015)
